Columns and labels:
Assay in all cases: combination Emax (second highest fraction inhibited in the dose matrix, 72 h); higher = more inhibition; extreme values may be limits of the assay
[1] = system: COR-L279 (Small Cell Lung Carcinoma)
In short: (§1)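 After 24 hours at 37°C and 5% CO2 in 1536-well plates, cells in DMEM/F12 or RPMI plus 10% FBS received two-drug dose matrices for 72 hours. Viability came from CellTiter-Glo 2.0 luminescence and was scaled as inhibition, anchored at 0 by vehicle wells and at 1 by blank wells. Combination Emax is taken as the second-highest inhibition in the matrix, and Bliss excess as the observed combination effect less EA + EB − EA·EB, with EA and EB the single-agent effects.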

[2] = system: DAN-G (Pancreatic Carcinoma)
In short: as §1

[3] = system: DMS-114 (Small Cell Lung Carcinoma)
In short: as §1

[4] = system: ESO51 (Esophageal Adenocarcinoma)
In short: as §1

[5] = system: H9 (T-Cell Non-Hodgkin's Lymphoma)
In short: as §1

[6] = system: HCC1187 (Breast Carcinoma)
In short: as §1

[7] = system: IM-95 (Gastric Carcinoma)
In short: as §1

[8] = system: KP-3 (Pancreatic Carcinoma)
In short: as §1

[9] = system: KY821 (Acute Myeloid Leukemia)
In short: as §1

[10] = system: MN-60 (B-Lymphoblastic Leukemia)
In short: as §1

[11] = system: MOLM-13 (Acute Myeloid Leukemia)
In short: as §1

[12] = system: NCI-H2731 (Mesothelioma)
In short: as §1

[13] = system: NCI-H526 (Small Cell Lung Carcinoma)
In short: as §1

[14] = system: NCI-H661 (Non-Small Cell Lung Carcinoma)
In short: as §1

[15] = system: PC-3 (Prostate Carcinoma)
In short: as §1

[16] = system: RPMI-8226 (Plasma Cell Myeloma)
In short: as §1

[17] = system: SK-GT-2 (Gastric Carcinoma)
In short: as §1

[18] = system: SNU-398 (Hepatocellular Carcinoma)
In short: as §1

[19] = system: SUP-B15 (B-Lymphoblastic Leukemia)
In short: as §1

[20] = system: VMRC-RCZ (Kidney Carcinoma)
In short: as §1

SMILES | combination Emax [1] | combination Emax [2] | combination Emax [3] | combination Emax [4] | combination Emax [5] | combination Emax [6] | combination Emax [7] | combination Emax [8] | combination Emax [9] | combination Emax [10] | combination Emax [11] | combination Emax [12] | combination Emax [13] | combination Emax [14] | combination Emax [15] | combination Emax [16] | combination Emax [17] | combination Emax [18] | combination Emax [19] | combination Emax [20]
CN(C)CCCOc1ccc(-c2ccc3ncc4c(c3c2)n(C2CCOCC2)c(=O)n4C)cn1 [AZD0156] + C=CCn1c(=O)c2cnc(Nc3ccc(N4CCN(C)CC4)cc3)nc2n1-c1cccc(C(C)(C)O)n1 [AZD1775] (first compound max 1 µM, partner max 1 µM) | 0.454 | 0.651 | 0.257 | 0.69 | 0.891 | 0.299 | 0.454 | 0.211 | 0.987 | 0.374 | 0.985 | 0.285 | 0.65 | 0.523 | 0.224 | 0.656 | 0.714 | 0.473 | 0.602 | 0.206
CN(C)CCCOc1ccc(-c2ccc3ncc4c(c3c2)n(C2CCOCC2)c(=O)n4C)cn1 [AZD0156] + CCN(CCO)CCCOc1ccc2c(Nc3cc(CC(=O)Nc4cccc(F)c4)[nH]n3)ncnc2c1 [AZD2811] (first compound max 1 µM, 7x7, partner max 1 µM) | 0.776 | 0.321 | 0.232 | 0.163 | 0.727 | 0.844 | 0.438 | 0.0612 | 0.559 | 0.207 | 0.983 | 0.144 | 0.373 | 0.0442 | 0.16 | 0.556 | 0.0747 | 0.339 | 0.896 | 0.078
CN(C)CCCOc1ccc(-c2ccc3ncc4c(c3c2)n(C2CCOCC2)c(=O)n4C)cn1 [AZD0156] + C[C@@H]1COCCN1C2=NC(=NC(=C2)C3(CC3)[S@](=N)(=O)C)C4=C5C=CNC5=NC=C4 [AZD6738] (first compound max 1 µM, 7x7, partner max 10 µM) | 0.694 | 0.696 | 0.515 | 0.773 | 0.972 | 0.472 | 0.339 | 0.398 | 0.966 | 0.402 | 0.997 | 0.244 | 0.529 | 0.486 | 0.484 | 0.994 | 0.311 | 0.462 | 0.879 | 0.232
CN(C)CCCOc1ccc(-c2ccc3ncc4c(c3c2)n(C2CCOCC2)c(=O)n4C)cn1 [AZD0156] + O=C(c1cc(Cc2n[nH]c(=O)c3ccccc23)ccc1F)N1CCN(C(=O)C2CC2)CC1 [Olaparib] (first compound max 3 µM, partner max 3 µM) | 0.692 | 0.576 | 0.414 | 0.348 | 0.445 | 0.197 | 0.151 | 0.0919 | 0.4 | 0.119 | 0.563 | 0.201 | 0.408 | 0.217 | 0.199 | 0.421 | 0.273 | 0.387 | 0.675 | 0.181
C=CCn1c(=O)c2cnc(Nc3ccc(N4CCN(C)CC4)cc3)nc2n1-c1cccc(C(C)(C)O)n1 [AZD1775] + C[C@@H]1COCCN1C2=NC(=NC(=C2)C3(CC3)[S@](=N)(=O)C)C4=C5C=CNC5=NC=C4 [AZD6738] (first compound max 1 µM, partner max 10 µM) | 0.675 | 0.763 | 0.511 | 0.754 | 1 | 0.683 | 0.761 |  | 1 | 0.64 | 0.999 | 0.464 | 0.873 | 0.689 | 0.498 | 0.983 | 0.799 | 0.563 | 0.914 | 0.41
Cc1c2c(nn1C)CSCc1cc(n(C)n1)CSc1cc(c3ccccc3c1)OCCCc1c(C(=O)O)n(C)c3c-2c(Cl)ccc13 [AZD5991] + C=CCn1c(=O)c2cnc(Nc3ccc(N4CCN(C)CC4)cc3)nc2n1-c1cccc(C(C)(C)O)n1 [AZD1775] (first compound max 1 µM, partner max 1 µM) | 0.466 | 0.883 | 0.657 | 0.591 | 1 | 0.998 | 0.895 | 0.269 | 1 | 0.188 | 1 | 0.298 | 0.818 | 0.949 | 0.245 | 0.984 | 0.809 | 1 | 1 | 
Cc1c2c(nn1C)CSCc1cc(n(C)n1)CSc1cc(c3ccccc3c1)OCCCc1c(C(=O)O)n(C)c3c-2c(Cl)ccc13 [AZD5991] + CN(C)CCCOc1ccc(-c2ccc3ncc4c(c3c2)n(C2CCOCC2)c(=O)n4C)cn1 [AZD0156] (first compound max 1 µM, 7x7, partner max 1 µM) | 0.496 | 0.48 | 0.548 | 0.205 | 0.834 | 0.988 | 0.824 |  | 1 | 0.177 | 1 | 0.193 | 0.378 | 0.505 | 0.282 | 0.963 | 0.182 | 1 | 1 | 0.21
Cc1c2c(nn1C)CSCc1cc(n(C)n1)CSc1cc(c3ccccc3c1)OCCCc1c(C(=O)O)n(C)c3c-2c(Cl)ccc13 [AZD5991] + C[C@@H]1COCCN1C2=NC(=NC(=C2)C3(CC3)[S@](=N)(=O)C)C4=C5C=CNC5=NC=C4 [AZD6738] (first compound max 1 µM, 7x7, partner max 10 µM) | 0.822 | 0.737 | 0.815 | 0.747 | 1 | 1 | 0.859 | 0.377 | 1 | 0.399 | 1 | 0.294 | 0.833 | 0.829 | 0.482 | 1 | 0.334 | 1 | 1 | 
Cc1c2c(nn1C)CSCc1cc(n(C)n1)CSc1cc(c3ccccc3c1)OCCCc1c(C(=O)O)n(C)c3c-2c(Cl)ccc13 [AZD5991] + Cn1cnc2c(F)c(Nc3ccc(Br)cc3Cl)c(C(=O)NOCCO)cc21 [Selumetinib] (first compound max 1 µM, 7x7, partner max 3 µM) | 0.18 | 0.84 | 0.43 | 0.361 | 1 | 0.986 | 0.957 |  | 1 | 0.323 | 1 | 0.151 |  | 0.462 | 0.245 | 0.96 | 0.154 | 1 | 1 | 0.214
C[C@@H]1COCCN1c1cc(C2([S@](C)(=N)=O)CC2)nc(-c2ccnc3[nH]ccc23)n1 [AZD6738] + O=C(c1cc(Cc2n[nH]c(=O)c3ccccc23)ccc1F)N1CCN(C(=O)C2CC2)CC1 [Olaparib] (first compound max 10 µM, 7x7, partner max 10 µM) | 0.927 | 0.643 | 0.528 | 0.555 | 0.911 | 0.532 | 0.459 |  | 0.97 | 0.528 | 1 | 0.304 | 0.752 | 0.54 | 0.514 | 0.96 | 0.355 | 0.354 | 0.969 | 0.319
CS(=O)(=O)CCNCc1ccc(-c2ccc3ncnc(Nc4ccc(OCc5cccc(F)c5)c(Cl)c4)c3c2)o1 [Lapatinib] + Cn1cnc2c(F)c(Nc3ccc(Br)cc3Cl)c(C(=O)NOCCO)cc21 [Selumetinib] (first compound max 10 µM, 7x7, partner max 10 µM) | 0.811 |  | 0.437 |  |  |  |  | 0.367 |  | 0.204 |  | 0.35 | 0.164 |  |  |  |  |  |  | 0.257
CS(=O)(=O)CCNCc1ccc(-c2ccc3ncnc(Nc4ccc(OCc5cccc(F)c5)c(Cl)c4)c3c2)o1 [Lapatinib] + NC1(c2ccc(-c3nc4ccn5c(=O)[nH]nc5c4cc3-c3ccccc3)cc2)CCC1 [MK-2206] (first compound max 10 µM, 7x7, partner max 10 µM) | 0.978 |  | 0.893 |  | 0.94 |  | 0.509 | 0.205 | 0.969 | 0.904 |  | 0.894 | 0.864 |  |  |  |  |  |  | 0.408
CCc1c2c(nc3ccc(O)cc13)-c1cc3c(c(=O)n1C2)COC(=O)[C@]3(O)CC [SN-38] + O=C(c1cc(Cc2n[nH]c(=O)c3ccccc23)ccc1F)N1CCN(C(=O)C2CC2)CC1 [Olaparib] (first compound max 0.3 µM, 7x7, partner max 10 µM) | 1 |  | 0.491 | 0.624 | 1 | 0.467 | 0.465 | 0.0787 | 0.998 | 0.858 |  | 0.503 | 1 | 0.548 |  |  |  | 0.255 |  | 0.281
C[C@@H](c1ccc2nccn2c1)n1nnc2ncc(-c3cnn(C)c3)nc21 [Savolitinib] + CN(CC[C@H](CSC1=CC=CC=C1)NC2=C(C=C(C=C2)S(=O)(=O)NC(=O)C3=CC=C(C=C3)N4CCC(CC4)[C@H](C5=CC=CC=C5C6=CC=C(C=C6)Cl)O)S(=O)(=O)C(F)(F)F)CCO [AZD4320] (first compound max 1 µM, 7x7, partner max 1 µM) |  | 0.199 |  | 0.95 | 0.929 | 0.205 | 0.675 |  | 1 |  | 1 |  |  | 0.189 | 0.189 | 0.944 | 0.136 | 0.245 | 1 | 

Reference: the supplement of paper PMC11061612
